We go through 51 substances from PMC3602187, “From Design to Screening: A New Antimicrobial Peptide Discovery Pipeline” (PLoS ONE, 2013).

The subject of the assay is Listeria innocua 33090. The assay can be described thus: colony overlay assay of peptide-secreting E. coli clones (library screening and re-test). It is filed as cell-based. Further details: key: higher activity group (H); equal activity group (E); lower activity group (L). The note with it: library screening; selected colonies pooled by zone size; peptides identified by 454 sequencing, full-length sequences with minimum 20 reads. As to the method: For the in vivo production of AMPs, we have employed an E. coli expression system that relies on periplasmic-expression of recombinant peptides in a host cell that lacks the lpo membrane protein, thus releasing the peptides present in the periplasmic space outside the cells. When the producer cells are grown into colonies on a solid substrate, it leads to accumulation of the recombinant peptides around the colony and allows for easy library screening. The screening assay used in this study was a modified version of the standard agar diffusion method as previously described. Library-transformed E. coli colonies are overlaid with a tester strain and incubated overnight to allow for peptide expression and tester strain growth. Next day, the plates are inspected for the formation of clear growth inhibition zones around E. coli colonies, which is an indication of active AMP production by the host colony.
For the construction of Pln-423 mutant library in E. coli, the expression system that consists of a periplasmic-leaky E. coli strain JE5505 and the expression plasmid pFLAG-CTS was employed for direct screening of peptide activities. It should be noted here that this plasmid contains ompA secretion signal sequence and cleavage of this sequence results in a serine residue at the N-terminal of all mature peptides. A total of 1.0×10^5 colonies, approximately 8-fold coverage of the library, were screened against Listeria innocua 33090 in five separate screening experiments. L. innocua was previously deemed as a suitable indicator for pathogenic L. monocytogenes displaying similar bacteriocin sensitivity, therefore it was used as a surrogate strain throughout this study. The selection process involved two criteria; 1) the size of the each inhibition zone was compared to that of wild-type Pln-423 as a correlation to anti-listerial activity level, 2) when several colonies formed inhibition zones that are very similar in size and character, only a few from each group were selected. The colonies were pooled into three groups based on their activities, giving 43 clones in a higher activity group (H), 81 clones in an equal activity group (E), and 241 clones in a lower activity group (L). Their plasmids were extracted from each activity group and analyzed by both Sanger and 454 high-throughput sequencing to identify peptide sequences.
These clones were also re-tested by colony overlay assay to compare their activities to wild-type Pln-423 based on the size of the inhibition zone around each clone (Figure 2-A). Based on this assay, all ten plantaricin mutants formed larger inhibition zones (10.3±0.5 to 11.4±0.3 mm zone diameter) compared to wild-type Pln-423 (6.2±0.2 mm) against L. innocua 33090. Out of those ten, three clones have a single mutation and […] clones have two mutations and the remaining single clone has three mutations. […] Positions like Ser23, Ser27, His28, and Lys36 were commonly mutated with similar amino acids indicating their potential role on higher peptide activity.
The screening method used in this study was a modified version of the standard colony overlay method as previously described. All the chemicals and growth media supplements were obtained from either Sigma-Aldrich or Fisher Scientific unless otherwise stated. Transformed E. coli JE5505 cells were diluted to 3000–5000 cfu (determined empirically prior to screening by plating serial dilutions of E. coli suspensions of a known absorbance and counting the colonies after incubation) in 25 ml LB soft agar (0.8%, 45°C) per screening plate and poured into 150 mm petri dishes. Once the media was solidified, they were overlaid with 10 ml LB soft agar (45°C) and incubated at 37°C for 24 h for host-colony formation. Next day, these plates were re-overlaid with 10 ml TSB soft agar containing 1 mM IPTG and the indicator strain Listeria innocua ATCC 33090 (diluted to OD600 = 0.03). […]
With “KYYGNGVTCGKHSCSVNWGQAFACSVSHLANFGHGKC* [Pep-1_35]”, the “activity group by size of inhibition zone compared to wild-type Pln-423” value is given as “E”.

“KYYGNGVTCGKHSCSVNWGQAFSCSVHRLANFGHGKC* [Pep-2_5917]”: the “activity group by size of inhibition zone compared to wild-type Pln-423” value is recorded as “L”.

For “KYYGNGVTCGKHSCSVNWGQAFSCSVLHLANFGHGKC* [GROUP L-UM-20]”, the “activity group by size of inhibition zone compared to wild-type Pln-423” value is “L”.

With “KYYGNGVTCGKHSCSVNWGQAFSCSVSHLANFGHDKC* [GROUP E-UM-9]”, the “activity group by size of inhibition zone compared to wild-type Pln-423” value is “E”.

Take “KYYGNGVTCGKHSCSVNWGQAFSCSVAHFANLGHGKC* [GROUP L-UM-30]”: the “activity group by size of inhibition zone compared to wild-type Pln-423” value was “L”.

Regarding “KYYGNGVTCGKHSCSVNWGQAFSCTVSNLANFGHGKC* [Pep-2_6771]”, the “activity group by size of inhibition zone compared to wild-type Pln-423” value was “L and E and H”.

Turning to “KYYGNGVTCGKHSCSVNWGQAFSCSVSNLANFGRGKC* [Pep-2_6817]”, the “activity group by size of inhibition zone compared to wild-type Pln-423” value is on record as “L”.

Turning to “KYYGNGVTCGKHSCSVNWGQAFSCSWSHLANYGHGKC* [Pep-2_5835]”, the “activity group by size of inhibition zone compared to wild-type Pln-423” value is reported as “L”.

For “KYYGNGVTCGKHSCSVNWGQSFSCSFSHLANFGHGKC* [Pep-2_5559]”, the “activity group by size of inhibition zone compared to wild-type Pln-423” value is “L”.

On to “KYYGNGVTCGKHSCSVNWGQAFSCMVSHLANGGHGKC* [Pep-2_9580]”, for which the “activity group by size of inhibition zone compared to wild-type Pln-423” value is listed as “L”.

As for “KYYGNGVTCGKHSCSVNWGTAFSCSISHLANFGHGKC* [Pep-2_1588]”, the “activity group by size of inhibition zone compared to wild-type Pln-423” value was “E”.

With “KYYGNGVTCGKHSCSVNWGQVFSCSVSHLANFGHGHC* [Pep-2_11716]”, the “activity group by size of inhibition zone compared to wild-type Pln-423” value is on record as “L”.

“KYYGNGVTCGKHSCSVNWAQAFSCSVSHLANFGHGHC* [Pep-2_1213]”: the “activity group by size of inhibition zone compared to wild-type Pln-423” value was “L and E”.

In the case of “KYYGNGVTCGKHSCSVNWGQAFMCSLSHLANFGHGKC* [GROUP L-UM-7]”, the “activity group by size of inhibition zone compared to wild-type Pln-423” value was “L”.

As to “KYYGNGVTCGKHSCSVNWGQAFSCSVEHLANFGHGKC* [Pep-1_56]”, the “activity group by size of inhibition zone compared to wild-type Pln-423” value is “E and H”.

As to “KYYGNGVTCGKHSCSVNWGQAFSCAVSHLANFGHHKC* [Pep-2_5095]”, the “activity group by size of inhibition zone compared to wild-type Pln-423” value was “L”.

Consider “KYYGNGVTCGKHSCSVNWGQAFSCSVSILANFGHGKC* [GROUP L-UM-6]”, for which the “activity group by size of inhibition zone compared to wild-type Pln-423” value is on record as “L”.

As for “KYYGNGVTCGKHSCSVNWGQAFSCSVSHLANMGHGKC* [Pep-1_88]”, the “activity group by size of inhibition zone compared to wild-type Pln-423” value is “H”.

For the substance “KYYGNGVTCGKHSCSVNWGQAFSCSVSHLANGGHGKC* [Pep-1_89]”, the “activity group by size of inhibition zone compared to wild-type Pln-423” value was “L”.

Take “KYYGNGVTCGKHSCSVNWGQAFSCSVSHLANFGHNWC* [Pep-2_12339]”: the “activity group by size of inhibition zone compared to wild-type Pln-423” value is reported as “E”.

With “KYYGNGVTCGKHSCSVNWGVAFSCSVSHLANFGHGYC* [Pep-2_1755]”, the “activity group by size of inhibition zone compared to wild-type Pln-423” value is “L”.

In the case of “KYYGNGVTCGKHSCSVNWGQAFSCYASHLANFGHGKC* [Pep-2_5691]”, the “activity group by size of inhibition zone compared to wild-type Pln-423” value was “L”.

As to “KYYGNGVTCGKHSCSVNWGQAFSCSVSRLAAFGHGKC* [Pep-2_6587]”, the “activity group by size of inhibition zone compared to wild-type Pln-423” value is on record as “L”.

Turning to “KYYGNGVTCGKHSCSVNWGQAFSCSVVHLVNFGHGKC* [Pep-2_6256]”, the “activity group by size of inhibition zone compared to wild-type Pln-423” value is “L”.

For “KYYGNGVTCGKHSCSVNWGQAFDCSVSHLANFGHGKC* [GROUP H-UM-1]”, the “activity group by size of inhibition zone compared to wild-type Pln-423” value is listed as “H”.

For “KYYGNGVTCGKHSCSVNWGQAFDCSVSHLANFGHGKC* [GROUP E-UM-1]”, the “activity group by size of inhibition zone compared to wild-type Pln-423” value is reported as “E”.

On to “KYYGNGVTCGKHSCSVNWGQAFYCSVSHLANFGHGKC* [GROUP L-UM-29]”, for which the “activity group by size of inhibition zone compared to wild-type Pln-423” value was “L”.

“KYYGNGVTCGKHSCSVNWGQVFSCSVSHLANFGHGKC* [Pep-1_22]”: the “activity group by size of inhibition zone compared to wild-type Pln-423” value is given as “L”.

“KYYGNGVTCGKHSCSVNWGQAFACSVSHLANFGHGWC* [Pep-2_12269]”: the “activity group by size of inhibition zone compared to wild-type Pln-423” value is listed as “L”.

Take “KYYGNGVTCGKHSCSVNWGQAFSCHVDHLANFGHGKC* [Pep-2_4616]”: the “activity group by size of inhibition zone compared to wild-type Pln-423” value was “E”.

With “KYYGNGVTCGKHSCSVNWAQGFSCSVSHLANFGHGKC* [Pep-2_1127]”, the “activity group by size of inhibition zone compared to wild-type Pln-423” value is recorded as “L”.

For “KYYGNGVTCGKHSCSVNWGQAFSCSVNVLANFGHGKC* [Pep-2_6891]”, the “activity group by size of inhibition zone compared to wild-type Pln-423” value is “L”.

Regarding “KYYGNGVTCGKHSCSVNWGQAFSCFVSRLANFGHGKC* [Pep-2_6556]”, the “activity group by size of inhibition zone compared to wild-type Pln-423” value is recorded as “L”.

In the case of “KYYGNGVTCGKHSCSVNWGQAFSCSVSHWANFGHGKC* [GROUP L-UM-32]”, the “activity group by size of inhibition zone compared to wild-type Pln-423” value is listed as “L”.

Take “KYYGNGVTCGKHSCSVNWGQAFSCSVSKMANFGHGKC* [Pep-2_7543]”: the “activity group by size of inhibition zone compared to wild-type Pln-423” value is listed as “L”.

Regarding “KYYGNGVTCGKHSCSVNWGEAFSCAVSHLANFGHGKC* [Pep-2_5012]”, the “activity group by size of inhibition zone compared to wild-type Pln-423” value is “E”.

Take “KYYGNGVTCGKHSCSVNWGQAFSCSVEHLANFGHAKC* [Pep-2_6071]”: the “activity group by size of inhibition zone compared to wild-type Pln-423” value is “E”.

On to “KYYGNGVTCGKHSCSVNWGQAFSCSVSHLANFGFGWC* [Pep-2_12334]”, for which the “activity group by size of inhibition zone compared to wild-type Pln-423” value is listed as “L”.

As for “KYYGNGVTCGKHSCSVNWGQAFCCSVSHLANFGHGKC* [GROUP L-UM-17]”, the “activity group by size of inhibition zone compared to wild-type Pln-423” value is “L”.

With “KYYGNGVTCGKHSCSVNWGQAFSCSVDHLANFGHGKC* [GROUP H-UM-2]”, the “activity group by size of inhibition zone compared to wild-type Pln-423” value was “H”.

For the substance “KYYGNGVTCGKHSCSVNWGQAFSCSVGVLANFGHMHC* [GROUP L-UM-19]”, the “activity group by size of inhibition zone compared to wild-type Pln-423” value was “L”.

Take “KYYGNGVTCDKHSCSVNWGQAFKCSVDHLANFGHGKC* [GROUP H-UM-4]”: the “activity group by size of inhibition zone compared to wild-type Pln-423” value is “H”.

Turning to “KYYGNGVTCGKHSCSVNWGRAFSCSVAHLANFGHGKC* [Pep-2_6307]”, the “activity group by size of inhibition zone compared to wild-type Pln-423” value was “L”.

As for “KYYGNGVTCGKHSCSVNWGQAFSCSVSWLANFGSGKC* [Pep-2_10680]”, the “activity group by size of inhibition zone compared to wild-type Pln-423” value was “L”.

Take “KYYGNGVTCGKHSCSVNWGQAFSCSVSHLANFGIGLC* [GROUP L-UM-3]”: the “activity group by size of inhibition zone compared to wild-type Pln-423” value was “L”.

For “KYYGNGVTCGKHSCSVNWGQAFSCSASHLANFGHGKC* [Pep-1_53]”, the “activity group by size of inhibition zone compared to wild-type Pln-423” value is “L”.

With “KYYGNGVTCGKHSCSVNWGQAFSCSVSSLANFGHGKC* [GROUP E-UM-3]”, the “activity group by size of inhibition zone compared to wild-type Pln-423” value was “E”.

As for “KYYGNGVTCGKHSCSVNWGQAFSCSVSSLANFGHGLC* [Pep-2_12081]”, the “activity group by size of inhibition zone compared to wild-type Pln-423” value is “E”.

Turning to “KYYGNGVTCGKHSCSVNWGQAVSCSVSHLANFGHGKC* [Pep-1_28]”, the “activity group by size of inhibition zone compared to wild-type Pln-423” value was “E”.

On to “KYYGNGVTCGKHSCSVNWGQAFSCSVSHLANFGRGKC* [Pep-1_97]”, for which the “activity group by size of inhibition zone compared to wild-type Pln-423” value is “L”.

As for “KYYGNGVTCGKHSCSVNWGQAFSCSVSDLANFGHGKC* [Pep-1_62]”, the “activity group by size of inhibition zone compared to wild-type Pln-423” value is listed as “L”.
